Test results as given in US11464854B2, “Methods and compositions relating to adjuvants” (Children's Medical Center Corporation, priority 2017, dated 2022).

Experiments:
human TLR8 = target: T1, human TLR8 (Homo sapiens, UniProt Q9NR97); conditions: HEK293 cells stably expressing human TLR8 (ref. 24); cited from earlier work
T1 construct: host or cells: HEK293 with NF-kB-responsive SEAP reporter
T1 sequence (Q9NR97 27-1041): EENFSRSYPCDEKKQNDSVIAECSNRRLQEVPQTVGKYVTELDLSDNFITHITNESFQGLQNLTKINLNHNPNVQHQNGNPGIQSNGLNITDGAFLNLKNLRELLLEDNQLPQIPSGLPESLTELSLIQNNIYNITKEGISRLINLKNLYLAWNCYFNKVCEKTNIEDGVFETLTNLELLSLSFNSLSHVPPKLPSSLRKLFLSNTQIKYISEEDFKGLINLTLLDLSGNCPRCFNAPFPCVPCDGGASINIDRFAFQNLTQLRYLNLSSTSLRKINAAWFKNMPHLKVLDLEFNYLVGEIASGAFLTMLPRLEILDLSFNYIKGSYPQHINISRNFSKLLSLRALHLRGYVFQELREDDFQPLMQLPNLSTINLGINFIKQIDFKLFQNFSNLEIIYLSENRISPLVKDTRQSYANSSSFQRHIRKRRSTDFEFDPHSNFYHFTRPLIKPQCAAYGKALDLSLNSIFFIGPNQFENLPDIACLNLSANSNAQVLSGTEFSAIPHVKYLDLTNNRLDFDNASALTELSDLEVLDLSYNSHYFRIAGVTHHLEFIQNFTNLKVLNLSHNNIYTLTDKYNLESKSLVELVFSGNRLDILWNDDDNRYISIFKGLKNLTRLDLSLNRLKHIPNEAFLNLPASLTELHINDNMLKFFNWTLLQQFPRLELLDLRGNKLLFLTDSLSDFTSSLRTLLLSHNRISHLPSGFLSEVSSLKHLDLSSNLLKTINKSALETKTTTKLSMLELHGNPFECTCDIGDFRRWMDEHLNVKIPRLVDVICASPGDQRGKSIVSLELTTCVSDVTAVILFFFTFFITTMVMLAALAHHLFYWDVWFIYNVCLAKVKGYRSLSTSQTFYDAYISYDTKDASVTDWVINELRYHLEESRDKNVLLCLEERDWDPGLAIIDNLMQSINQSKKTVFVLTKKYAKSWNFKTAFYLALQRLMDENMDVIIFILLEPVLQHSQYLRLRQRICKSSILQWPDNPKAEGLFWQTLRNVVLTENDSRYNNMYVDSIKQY

PnPS-specific B cells = assay: Pneumococcal polysaccharide-specific B cells (ELISpot); format: in vivo, rhesus macaques (Macaca mulatta); conditions: control condition, adjuvant alone
Description: Characterization of pneumococcal polysaccharide-specific B cells. Rhesus macaque peripheral blood mononuclear cells (PBMCs) were labeled with anti-CD14-PE (clone M5E2), CD20-V450 (clone L27), CD27-PE.Cy7 (clone M-T271), CD4-FITC (clone SK3) Ab's (BD Biosciences). Sorting of CD14+ monocytes, CD20+CD27− naïve B cells, CD20+CD27+ memory B cells, and CD4+Th cells employed a FACSAria™ II cell sorter. Anti-pneumococcal B cells in peripheral blood were enumerated in sorted B cell populations. […] Secreted immunoglobulins were detected using horseradish peroxidase-conjugated goat-anti-rhesus immunoglobulin (Nordic Immunological Laboratories; Eindhoven, The Netherlands). Spots were developed using 3,3′,5,5′-Tetramethylbenzidine (TMB) (Mabtech, Mariemont; OH, USA) and visualized and counted using a series 5 ELISpot™ analyzer (Cellular Technology Limited, Shaker Heights; OH, USA). The fraction of pneumococcal polysaccharide-specific B cells was quantified as the ratio of the spots detected in polysaccharide-coated wells to spots detected in immunoglobulin-coated wells, after correction for dilution.

[1] = tested on: FHA (B. pertussis filamentous hemagglutinin); assay: Adult mouse immunization with Infanrix (DTaP), anti-FHA serum antibody titers; format: in vivo, Balb/c mice; conditions: 14 days post primary and secondary
Experimental: For immunization experiments, both neonate and adult mice were immunized intramuscularly (i.m.) in the posterior thigh with 50 μl of total vaccine dose. For adult mouse studies, Balb/c mice (6-8 weeks of age) were immunized with Infanrix (GSK, 1/100th of the human dose)±CRX649 or CRX-727 at 0.1 μg, 1 μg or 10 μg per mouse in different formulations (aqueous choline salt, liposome or alum pre-adsorbed). Serum was harvested 14 days following prime (14dp1) or boost (14dp2) and anti-FHA serum antibody IgG1 and IgG2a titers were measured by ELISA, as described below. For neonatal mouse studies, 7 day old Balb/c and C57BL/6 mice were immunized with a prime-boost schedule (two injections one week apart, for newborn mice at DOL 7 and 14). Serum was harvested 14 days following boost (14dp2) (day of life 28) and anti-FHA serum total IgG titers, IgG1 and IgG2a/IgG2c were measured by ELISA.
For anti-filamentous hemagglutinin (FHA) ELISAs, Nunc MaxiSorp™ flat bottom 96-well plates (ThermoFisher Scientific) were coated with 5 μg/ml FHA (B. pertussis Filamentous Hemagglutinin, Strain: NCTC 10739, The Native Antigen Company/Cedarlane, Burlington, N.C.) in carbonate buffer pH 9.6, incubated overnight at 4° C., washed 3× with wash buffer (KPL 10× Phosphate Buffered Saline with Tween 20 (Fisher Scientific)) and blocked with Superblock™ (ScyTek) for 1 h at room temperature (RT). […]

SMILES: CCCCCCCCCCCCCCCCCC(=O)NCCCCOn1c(CCCC)nc2c(N)nc3ccccc3c21 [3M-052, N-[4-[(4-amino-2-butyl-1H-imidazo[4,5-c]quinolin-1-yl)oxy]butyl]octadecanamide]
- agonist activity, human TLR8 (human TLR8): Dual agonist activity
- non-specific polysaccharide in vitro activation of B cells (PnPS-specific B cells): ≤ 1.0%

SMILES: CCCCc1nc2c(N)nc3ccccc3c2n1CCO [CRX-649]
- anti-FHA IgG1 or IgG2a antibody titers [1]: not able to enhance
